Literature values in patent publication EP0277754A1, “Method involving propylene amine oxime complexes” (AMERSHAM INTERNATIONAL plc, priority 1987, dated 1988).

CC(=NO)C(C)(C)NCCCNC(C)(C)C(C)=NO [PnAO]
retention in human brain: retained only to a small extent
